Experiments:
SCC9 (OSCC cell) = assay: MTT cell viability assay (cytotoxicity), SCC9; assay type: cell-based, human
Description: (§1) Cells and reagents. Human SCC-4, SCC-9, and SCC-25 cells, derived from a human oral tongue SCC (squamous cell carcinoma) were obtained from the ATCC (CRL-1624, CRL-1629, and CRL-1628, respectively) and maintained in 1:1 DMEM/F12 (Dulbecco’s modified Eagle medium and Ham’s F12 medium; Gibco (Thermo Fisher, Waltham, MA, USA)) supplemented with 10% (v/v) FBS (fetal bovine serum; Invitrogen, Thermo Fisher, Waltham, MA, USA) and 400 ng/mL hydrocortisone (Sigma-Aldrich Co., St. Louis, MO, USA). Primary normal human gingival fibroblasts were obtained from the ATCC (PCS-201-018) and maintained in DMEM supplemented with 10% (v/v) FBS and were used in a maximum of six passages. The cells were grown in a humidified environment containing 5% CO2 at 37 °C. […] Carboplatin stock was prepared in water (Fauldcarbo®; LibbsFarmacêutica, São Paulo, SP, Brazil) and was used as a standard anticancer compound.
(§2) Cell viability assay (cytotoxicity) and compound stability assay. The viability of SCC cell lines and primary human fibroblast cells was evaluated using the MTT assay as in [48]. Briefly, the cells were grown in triplicates in 96-well plates (5 × 10^3 cells/well) until confluence. Then, the medium was removed, fresh medium was added, and the cells were returned to the incubator in the presence of different compounds. DMSO at the same concentrations was used as a 100% cell viability control. After 48 h, the cells were incubated with 5 mg/mL MTT reagent (3-(4,5-dimethyl-2-thiazolyl)-2,5-diphenyl-2-H-tetrazolium bromide) (Sigma-Aldrich Co., St. Louis, MO, USA) for 3.5 h. After that, formazan crystals were dissolved in MTT solvent solution (DMSO/methanol 1:1 v/v) and the absorbance at 560 nm was evaluated using an EPOCH microplate spectrophotometer (BioTek Instruments, Winooski, VT, USA) with the background absorbance at 670 nm subtracted.
(§3) Statistical analysis, IC50 calculation. The data are presented as means ±\SD. IC50 values for the MTT assays were obtained by nonlinear regression using the […] 5.0 program (Intuitive Software for Science, San Diego, CA, USA) from at least three independent experiments. A dose–response (inhibitor) vs. response curve using the least squares method was used to determine the IC50, SD, and R^2 of the data. The selectivity index was calculated as SI = IC50 of the compound in normal oral fibroblast cells/IC50 of the same compound for each oral cancer cell line (SCC-4, SCC-9, and SCC-25) and the mean was calculated when indicated.

[1] = MTT cell viability assay, normal fibroblasts; assay type: cell-based, human; details: human, primary normal human gingival fibroblasts (ATCC PCS-201-018)
Description: as §1, §2, §3

[2] = test system: Primary normal human gingival fibroblasts; assay: MTT cell viability assay, normal fibroblasts; assay type: cell-based; details: Homo sapiens, Fibroblast; primary gingival fibroblasts, 48 h, MTT; read-out: Primary Gingival Fibroblast IC50
Description: as §1, §2, §3

C57BL/6 female mice = assay: In vivo acute toxicity study; details: 14 days
Description: In vivo acute toxicity study. The acute toxicity study for compound 4e was performed in twelve-week-old C57BL/6 female mice via intraperitoneal injection and was approved by the University Animal Ethics Board under registration number 982. All experiments were performed in accordance with Brazilian guidelines and regulations. Dosing and analysis were performed according to 423 OECD guidelines and reviewed by. Each animal group had n = 3 or 4 (as indicated) and received only one intraperitoneal injection (Day 0) of compound 4e dissolved in […] PBS and 3% DMSO. The control group animals received only 3% DMSO in PBS. The first dose of the compound was 100 mg/kg. Subsequent dose levels (200 mg/kg and 400 mg/kg) were determined based on the result obtained from the previous dosing. The animals were examined every day, twice a day, for mortality and morbidity for 14 days, when all animals were anesthetized (ketamine 100 mg/kg and xylazine 10 mg/kg) followed by cervical dislocation. Gross necropsy and histology of the main organs were performed. The animals’ body weights and average food consumption were measured every 7 days. As an indication of morbidity, the following signs were assessed: tremors; convulsion; salivation; diarrhea; lethargy; coma; pain signs; increased rear arching; and mobility impairment. The necropsy included an examination of the external characteristics of the carcass; external body orifices; the abdominal, thoracic, and cranial cavities; organs/tissues of the liver, thymus, right kidney, […], heart, and lung. Major organs were analyzed by histopathology. For more details, see Supplementary Methods.

SCC9 cells [3] = assay: ROS production (ROS-Glo H2O2 assay); assay type: cell-based, human; details: SCC9, 2 × IC50, 3, 6, 24 and 48 h
Description: ROS production. The hydrogen peroxide (H2O2) luminescence assay was performed using the ROS-Glo™ H2O2 assay kit (Promega Corporation, Madison, WI, USA). […] A plate with wells without cells was used as a control. The cells and cell-free wells remained in treatment at the times of interest and, 2 h before the completion of the times, the well volumes were removed to reduce to 40 µL per well. Then, the positive control of menadione, a polycyclic aromatic ketone based on 1,4-naphthoquinone, was used to treat its respective well, and H2O2 substrate was added for all treatments, followed by the incubation of the plate for the 2 h remaining. After the times of 3, 6, 24, and 48 h, the detection solution was added, and the plates remained at room temperature for 20 min, following the reading in the luminometer.

SCC9 cells [4] = assay: Time-lapse video microscopy; assay type: cell-based, human; details: SCC9, 2 × IC50, 72 h time-lapse
Description: Video microscopy. […] For 72 h, phase-contrast images of the same field were captured every minute using a Hamamatsu C2400 CCD camera (Hamamatsu, Japan). The images of each experimental condition were integrated into videos using ImageJ software (National Institute of Health, Bethesda, MD, USA), and different times (indicated) were selected according to the morphological change observed during the treatment.

CC1(C)CC(=O)C2=C(C1)NC1=C(C(=O)c3ccccc3C1=O)C2c1ccc(Cl)cc1Cl (stereo not drawn) [4e, 12-(2,4-dichlorophenyl)-3,3-dimethyl-3,4-dihydrobenzo[b]acridine-1,6,11(2H,5H,12H)-trione]
IC50 (SCC9 (OSCC cell); Homo sapiens, SCC-9, SCC9, 48 h, MTT (Table 1), read-out: SCC9—Oral Cancer IC50): 14.7 µM
SCC9 S.I. (SCC9 (OSCC cell); IC50 normal oral fibroblasts / IC50 SCC9): 6.0
viability at 48 h [1]: > 75%
IC50 [2]: 88 µM
Change in Body Weight (C57BL/6 female mice; 100 mg/kg single i.p. dose): Absent
Change in Food Consumption (C57BL/6 female mice; 100 mg/kg single i.p. dose): Absent
Gross Necropsy (C57BL/6 female mice; 100 mg/kg single i.p. dose): No alteration
Histology (C57BL/6 female mice; 100 mg/kg single i.p. dose): No significant alteration in comparison to control
Morbidity (C57BL/6 female mice; 100 mg/kg single i.p. dose): Absent
Change in Body Weight (C57BL/6 female mice; 200 mg/kg single i.p. dose): Absent
Change in Food Consumption (C57BL/6 female mice; 200 mg/kg single i.p. dose): Absent
Gross Necropsy (C57BL/6 female mice; 200 mg/kg single i.p. dose): No alteration
Histology (C57BL/6 female mice; 200 mg/kg single i.p. dose): Presence of mild Perivascular and periportal lymphocyte focus and Bronchus-Associated Lymphoid Tissue (BALT)
Morbidity (C57BL/6 female mice; 200 mg/kg single i.p. dose): Absent
Change in Body Weight (C57BL/6 female mice; 400 mg/kg single i.p. dose): Absent
Change in Food Consumption (C57BL/6 female mice; 400 mg/kg single i.p. dose): Absent
Gross Necropsy (C57BL/6 female mice; 400 mg/kg single i.p. dose): No alteration
Histology (C57BL/6 female mice; 400 mg/kg single i.p. dose): Presence of mild Perivascular and periportal lymphocyte focus and Bronchus-Associated Lymphoid Tissue (BALT)
Morbidity (C57BL/6 female mice; 400 mg/kg single i.p. dose): Absent
ROS production (SCC9 cells [3]): low production of ROS
cell morphology (SCC9 cells [4]): formation of membrane blebs at early times, between 16 and 48 h, followed by cells shrinkage
